According to PubChem BioAssay (NCI):
“And” between values parts separate entries of the source, which are not always exact repeats. Identical values can stand only once.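 Results reflect a 48-hour exposure of cells in 96-well plates to compound at five concentrations. GI50 marks 50% less growth. TGI marks complete inhibition of growth.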

Assays:
Assay in all cases: NCI tumour cell line growth inhibition, 48 h
MCF7 breast = test system: MCF7 breast
MDA-N = test system: MDA-N
DMS 273 small cell lung = test system: DMS 273 small cell lung
HOP-18 NSCLC = test system: HOP-18 NSCLC
KM20L2 colon = test system: KM20L2 colon
LXFL 529 NSCLC = test system: LXFL 529 NSCLC
M19-MEL melanoma = test system: M19-MEL melanoma
RXF-631 renal = test system: RXF-631 renal
XF 498 CNS = test system: XF 498 CNS
P388/ADR leukemia = test system: P388/ADR leukemia
SN12K1 renal = test system: SN12K1 renal

SMILES | TGI (MCF7 breast) | GI50 (MCF7 breast) | TGI (DMS 273 small cell lung) | TGI (HOP-18 NSCLC) [µM] | TGI (KM20L2 colon) | TGI (LXFL 529 NSCLC) | TGI (M19-MEL melanoma) | TGI (XF 498 CNS) | other results
CC(=O)n1c(COS(C)(=O)=O)nc2ccccc21 | > 100 µM | – | – | – | – | – | – | – | TGI (MDA-N): > 100 µM
C=CCn1c2c(c3ccccc3c1=O)C(=O)c1ccccc1-2 | > 100 µM | – | – | – | – | – | – | – | TGI (MDA-N): > 100 µM
CS(=O)(=O)CCNCc1nc(-c2ccc3ncnc(Nc4ccc(F)c(Cl)c4)c3c2)cs1 | > 25 µM | > 23.3 µM | – | – | – | – | – | – | –
Nn1c(-c2ccccc2)nc2ccc(Br)cc2c1=O | – | – | > 100 µM | > 100 | > 100 µM | > 100 µM | > 100 µM | > 100 µM | TGI (RXF-631 renal): > 100 µM
N=C1C(c2nc(-c3ccc(Br)cc3)cs2)=C(O)CN1Cc1cccnc1 | > 100 µM | 9.76 µM | – | – | – | – | – | – | –
ClCc1cccc(Cn2cnc3c(Cl)ncnc32)c1 | 77.7 µM | 7.8 µM | – | – | – | – | – | – | –
CC(=O)C1CC(C)=CCC12C(=O)Nc1ccccc12 (stereo unspecified) | – | – | > 100 µM | > 100 | > 100 µM | > 100 µM | – | > 100 µM | TGI (RXF-631 renal): > 100 µM
O=C1NCc2ccc3c(-c4cccc(Cl)c4)c[nH]c3c21 | > 50 µM | 0.177 µM | – | – | – | – | – | – | –
C[C@@H]1C[C@@H](O)[C@]2(O)O[C@@H]3C[C@@]4(C=O)[C@@H](CC[C@@H]5[C@@H]4CC[C@]4(C)[C@@H](C6=CC(=O)OC6)CC[C@]54O)C[C@H]3O[C@@H]2O1 | 0.16 µM | – | 0.0724 µM and 0.0123 µM | – | 0.0631 µM and 0.107 µM | 0.0164 µM and 0.0576 µM | 0.104 µM and 0.0732 µM | 0.0571 µM and 0.0493 µM | GI50 (HOP-18 NSCLC): 5 nM; GI50 (KM20L2 colon): 21.8 nM; GI50 (M19-MEL melanoma): 12.5 nM; TGI (MDA-N): 0.189 µM; GI50 (XF 498 CNS): 20.6 nM
CN1CC[C@@H](c2c(O)cc(O)c3c(=O)cc(-c4ccccc4Cl)oc23)[C@@H](O)C1 | > 77.4 µM | 0.0629 µM and 0.046 µM | 0.32 µM | – | – | > 68.6 µM | – | 0.533 µM | GI50 (MDA-N): 124 nM and 49.4 nM; TGI (MDA-N): 0.349 µM and 0.148 µM
O=C(O)CSc1n[nH]c(-c2ccc(O)cc2)n1 | – | – | > 100 µM | > 100 | > 100 µM | – | > 100 µM | > 100 µM | TGI (RXF-631 renal): > 100 µM
COc1ccc(-c2nc3sc(C)cn3c2/C=C/C(=O)c2cc(OC)c(OC)c(OC)c2)cc1 | > 100 µM | 3.13 µM | – | – | – | – | – | – | –
O=C(O)c1c(-c2cccc3ccccc23)sc(-c2cccc3ccccc23)c1C(=O)O | – | – | > 100 µM | > 100 | > 100 µM | > 100 µM | > 100 µM | > 100 µM | –
O=C(Nc1ccc(N2CCNCC2)cc1)c1[nH]ncc1Nc1ncnc2sc3c(c12)CCC3 | 1.3 µM | 0.166 µM | – | – | – | – | – | – | –
COc1cc(OC)c([C@@H]2OC(=O)C3C2C(=O)O[C@H]3c2cc(OC)c(OC)cc2OC)cc1OC (stereo partly specified) | – | – | > 100 µM | > 100 | > 100 µM | > 100 µM | > 100 µM | > 100 µM | –
COc1ccc2c(c1)[nH]c(=O)c1c3cc(C)c(C)cc3cn21 | 1.16 µM | 0.0927 µM | – | – | – | – | – | – | –

SMILES | TGI (MCF7 breast) | GI50 (MCF7 breast) | TGI (DMS 273 small cell lung) | TGI (HOP-18 NSCLC) [µM] | TGI (KM20L2 colon) | TGI (LXFL 529 NSCLC) | TGI (M19-MEL melanoma) | TGI (XF 498 CNS) | other results
CCOC(=O)[C@@]1(C)C=C2O[C@@H]3OC4(CCCCC4)O[C@@H]3C2=C2C(O)=CC=C(O)[C@]21C(=O)OC | – | – | > 68 µM | > 68 | > 68 µM | > 68 µM | > 68 µM | > 68 µM | TGI (RXF-631 renal): > 68 µM
CC(=O)Nc1ccc2c(c1)c(C1=C(c3cn(C)c4ccccc34)C(=O)NC1=O)cn2C | > 15.7 µM | 0.852 µM | – | – | – | – | – | – | –
Cn1c2c(c3ccccc31)CCN(CCCCN1CCc3c(n(C)c4ccccc34)C1=O)C2 | – | – | > 100 µM | > 100 | > 100 µM | > 100 µM | > 100 µM | > 100 µM | TGI (RXF-631 renal): > 100 µM
CNC(P(=O)([O-])[O-])P(=O)([O-])[O-].N.N.[Pt+2] | – | – | > 100 µM | > 100 | > 100 µM | > 100 µM | – | – | GI50 (DMS 273 small cell lung): > 100 µM; GI50 (HOP-18 NSCLC): > 100000 nM; GI50 (KM20L2 colon): > 100000 nM; GI50 (LXFL 529 NSCLC): > 100 µM
Cc1cc(C)nc(NS(=O)(=O)c2ccc(Nc3c4ccccc4nc4c(C(=O)Nc5ccc(S(=O)(=O)N=C(N)N)cc5)ccc(Cl)c34)cc2)n1 | – | – | > 100 µM | > 100 | > 100 µM | 72.4 µM | 55.4 µM | 56.7 µM | –
COc1cc(O)c([C@@H]2C[C@H](CCc3ccc(O)cc3)O[C@H](c3ccc(O)cc3)C2)c(O)c1C(=O)/C=C/c1ccc(O)cc1 | 4.61 µM | 1.96 µM | – | – | – | – | – | – | –
O=C1C(=O)N(C(=O)c2ccc(Cl)c(Cl)c2)c2ccccc21 | – | – | > 100 µM | > 100 | – | > 100 µM | > 100 µM | – | TGI (RXF-631 renal): > 100 µM
Cc1cc(-c2ncc(CC(=O)Nc3ccc(-c4cnccn4)cn3)cc2C)ccn1 | > 100 µM | 19.1 µM | – | – | – | – | – | – | –
COc1ccc(C(=O)/C(Br)=C/C(=O)O)cc1 | 44.5 µM and 59.9 µM | 7.41 µM | 26.3 µM | 139 | 185 µM | – | 106 µM | 16 µM | GI50 (MDA-N): 47400 nM; TGI (MDA-N): 209 µM and 153 µM; TGI (P388/ADR leukemia): 108 µM; TGI (SN12K1 renal): 22.6 µM
COc1ccc(-c2nn3ncccc3c2-c2ccnc(Nc3ccc(Cl)c(C(F)(F)F)c3)n2)cc1 | > 25 µM | 6.53 µM | – | – | – | – | – | – | –
N#CCC1COc2ccccc2O1 (stereo unspecified) | > 10 µM | – | – | – | – | – | – | – | TGI (MDA-N): > 10 µM
COc1cc(-c2nn(-c3ccc(NC(=O)c4ccc(Cl)c(Cl)c4)cc3)cc2-c2ccncc2)ccc1Cl | > 100 µM | 5.53 µM | – | – | – | – | – | – | –
COc1cc(C2CC(c3ccc(C)cc3)=NN2C=O)ccc1Oc1ccnc2cc(Cl)ccc12 (stereo unspecified) | > 50 µM | > 50 µM | – | – | – | – | – | – | –
CC(=O)O/C=C(/C=C/OC(C)=O)C(C/C=C(\C)C#CC=C(C)C)OC(C)=O (stereo unspecified) | – | – | > 100 µM | > 100 | > 100 µM | 37.1 µM | 41.7 µM | > 100 µM | TGI (RXF-631 renal): > 100 µM
COC(=O)N[C@H]1CCc2c(Br)c(OC)c(OC)c(OC)c2-c2ccc(SC)c(=O)cc21 | 12.4 µM | < 0.01 µM | – | – | – | – | – | – | –
COc1ccc2c(c1)/C(=C\c1c(C)nc3sc(C)cn13)C(=O)N2C | 35.4 µM | 3.29 µM | – | – | – | – | – | – | –
